In patent publication US20190247361A1, “OXYTOCIN ANTAGONIST DOSING REGIMENS FOR PROMOTING EMBRYO IMPLANTATION AND PREVENTING MISCARRIAGE” (ObsEva S.A., priority 2016, published 2019):

Experiments:
Assay type in all cases: in vitro ADME
[1] = test system: cytochrome P450; test: microsomal stability, pooled liver microsomes, cytochrome P450 alone; conditions: 45 minute experiment
Description: (§1) At five time points over the course of a 45 minute experiment, the compounds were analyzed by liquid chromatography and tandem mass spectrometry (LC-MS/MS). Intrinsic clearance values (CLint) with standard error (SE CLint) and metabolic half-life (t1/2) were calculated and are indicated in Table 9, below.

[2] = test system: cytochrome P450 in combination with UGT; test: microsomal stability, pooled liver microsomes, cytochrome P450 in combination with UGT; conditions: 45 minute experiment
Description: as §1

[3] = biological target: CYP3A4 (Homo sapiens, UniProt P08684); test: metabolism by CYP3A4 isoform; conditions: for Compound Remaining (% of compound present at t = 0 min): 5 μM
Description: (§2) At five time points over the course of a 45 minute experiment, the compounds were analyzed by LC-MS/MS. The percentage of each compound remaining at each time point, along with the metabolic half-lives of each compound in the presence of each cytochrome P450 isoform, are indicated in Tables 10-12, below.

[4] = biological target: CYP2D6 (Homo sapiens, UniProt P10635); test: metabolism by CYP2D6 isoform; conditions: for Compound Remaining (% of compound present at t = 0 min): 5 μM
Description: as §2

[5] = biological target: CYP2C19 (Homo sapiens, UniProt P33261); test: metabolism by CYP2C19 isoform; conditions: for Compound Remaining (% of compound present at t = 0 min): 5 μM
Description: as §2

Chain of CYP2C19 (P33261 whole entry, canonical isoform): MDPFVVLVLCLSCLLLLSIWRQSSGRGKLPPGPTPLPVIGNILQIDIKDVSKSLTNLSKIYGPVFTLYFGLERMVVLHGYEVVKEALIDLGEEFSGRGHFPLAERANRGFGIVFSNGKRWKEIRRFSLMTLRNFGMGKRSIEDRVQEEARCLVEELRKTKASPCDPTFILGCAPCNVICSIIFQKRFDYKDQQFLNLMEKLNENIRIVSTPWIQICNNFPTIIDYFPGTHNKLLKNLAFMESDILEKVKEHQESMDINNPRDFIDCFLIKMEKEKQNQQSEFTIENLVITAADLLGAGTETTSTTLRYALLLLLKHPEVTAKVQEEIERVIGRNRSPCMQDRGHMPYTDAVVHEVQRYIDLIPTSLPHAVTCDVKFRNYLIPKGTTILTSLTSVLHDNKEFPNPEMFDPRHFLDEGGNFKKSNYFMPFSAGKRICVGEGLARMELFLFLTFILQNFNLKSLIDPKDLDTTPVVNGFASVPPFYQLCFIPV
Chain of CYP3A4 (P08684 whole entry, canonical isoform): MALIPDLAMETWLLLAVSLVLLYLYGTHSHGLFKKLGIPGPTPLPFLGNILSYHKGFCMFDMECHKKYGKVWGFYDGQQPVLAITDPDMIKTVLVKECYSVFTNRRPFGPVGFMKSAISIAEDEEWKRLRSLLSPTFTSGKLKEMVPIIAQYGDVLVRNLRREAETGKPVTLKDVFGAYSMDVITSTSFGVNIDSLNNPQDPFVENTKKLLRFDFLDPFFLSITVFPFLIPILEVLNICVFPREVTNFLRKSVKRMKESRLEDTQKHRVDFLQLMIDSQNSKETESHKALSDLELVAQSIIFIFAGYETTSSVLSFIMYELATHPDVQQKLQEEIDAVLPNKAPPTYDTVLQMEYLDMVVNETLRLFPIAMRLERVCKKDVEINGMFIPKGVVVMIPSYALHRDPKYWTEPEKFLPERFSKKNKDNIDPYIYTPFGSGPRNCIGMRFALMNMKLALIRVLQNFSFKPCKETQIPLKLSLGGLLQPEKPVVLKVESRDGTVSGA
Chain of CYP2D6 (P10635 whole entry, canonical isoform): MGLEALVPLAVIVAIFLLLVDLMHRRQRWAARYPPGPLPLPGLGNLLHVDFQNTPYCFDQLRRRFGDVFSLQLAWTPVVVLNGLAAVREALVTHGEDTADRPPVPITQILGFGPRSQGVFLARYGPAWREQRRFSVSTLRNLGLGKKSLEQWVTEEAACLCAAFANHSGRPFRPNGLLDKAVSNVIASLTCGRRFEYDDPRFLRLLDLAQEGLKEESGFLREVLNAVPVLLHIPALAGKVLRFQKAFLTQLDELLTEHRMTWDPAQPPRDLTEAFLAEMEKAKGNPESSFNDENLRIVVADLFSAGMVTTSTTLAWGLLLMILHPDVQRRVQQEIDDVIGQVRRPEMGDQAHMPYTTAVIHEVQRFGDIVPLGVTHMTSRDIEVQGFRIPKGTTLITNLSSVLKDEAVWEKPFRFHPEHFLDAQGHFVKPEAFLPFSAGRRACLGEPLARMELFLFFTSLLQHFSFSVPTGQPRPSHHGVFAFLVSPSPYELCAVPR

CO/N=C1\C[C@@H](CO)N(C(=O)c2ccc(-c3ccccc3C)cc2)C1 [(3E) isomer, (3E,5S)-5-(hydroxymethyl)-1-[(2′-methyl-1,1′-biphenyl-4-yl)carbonyl]pyrrolidin-3-one O-methyloxime, reference compound]
microsomal CLint at 3 μM ([1]; read-out: CLint, Metabolic Stability - CYP): 6.4 µL/min/mg | half-life at 3 μM ([1]; read-out: t1/2, Metabolic Stability - CYP): 3.6 h | microsomal CLint at 3 μM ([2]; read-out: CLint, Metabolic Stability - CYP/UGT): 5.38 µL/min/mg | half-life at 3 μM ([2]; read-out: t1/2, Metabolic Stability - CYP/UGT): 4.3 h | Compound Remaining (% of compound present at t = 0 min) ([3]; 0 min): 100% | Compound Remaining (% of compound present at t = 0 min) ([3]; 5 min): 107% | Compound Remaining (% of compound present at t = 0 min) ([3]; 15 min): 88.8% | Compound Remaining (% of compound present at t = 0 min) ([3]; 30 min): 92.5% | Compound Remaining (% of compound present at t = 0 min) ([3]; 45 min): 92.2% | half-life at 5 μM ([3]; human): 4.68 h | Compound Remaining (% of compound present at t = 0 min) ([4]; 0 min): 100% | Compound Remaining (% of compound present at t = 0 min) ([4]; 5 min): 49.3% | Compound Remaining (% of compound present at t = 0 min) ([4]; 15 min): 14.1% | Compound Remaining (% of compound present at t = 0 min) ([4]; 30 min): 2.43% | Compound Remaining (% of compound present at t = 0 min) ([4]; 45 min): 0.845% | half-life at 5 μM ([4]; human): 5.62 min | Compound Remaining (% of compound present at t = 0 min) ([5]; 0 min): 100% | Compound Remaining (% of compound present at t = 0 min) ([5]; 5 min): 87.6% | Compound Remaining (% of compound present at t = 0 min) ([5]; 15 min): 82.7% | Compound Remaining (% of compound present at t = 0 min) ([5]; 30 min): 57.1% | Compound Remaining (% of compound present at t = 0 min) ([5]; 45 min): 47.4% | half-life at 5 μM ([5]; human): 0.69 h
